# Activity calls are given as the source filed them. The rule behind the calls is not given here.
# Legend:
# Heat shock protein HSP90 [1] = target: T1, Heat shock protein HSP90 (Homo sapiens, UniProt P07900+P08238); assay: Binding affinity to Hsp90 (unknown origin) assessed as dissociation constant incubated for 30 mins by fluorescence spectrophotometric analysis; assay type: protein assay
# Heat shock protein HSP90 [2] = target: T1, Heat shock protein HSP90; assay: Inhibition of Hsp90 (unknown origin) ATPase activity assessed as decrease in absorbance using PEP as substrate in presence of ATP and NADH by absorbance based assay; assay type: protein assay
# A549 = assay: Antiproliferative activity against human A549 cells assessed as cell viability inhibition rate incubated for 72 hr by MTT assay; assay type: functional, cell-based; settings: A549, 72 h
# [3] = Tmax in rat plasma at 50 mg/kg, po and measured upto 24 hr by LC-MS/MS analysis; assay type: ADME, organism-based
# HCT-116 = assay: Antiproliferative activity against human HCT-116 cells assessed as cell viability inhibition rate incubated for 72 hr by MTT assay; assay type: functional, cell-based; settings: HCT-116, 72 h
# [4] = Oral bioavailability in rat at 50 mg/kg and measured upto 24 hr by LC-MS/MS analysis; assay type: ADME, organism-based; settings: in vivo
# Endoplasmin [5] = target: T2, Endoplasmin (Homo sapiens, UniProt P14625); assay: Inhibition of GRP94 (unknown origin) incubated for 12 to 16 hrs by FP competition assay
# MCF7 = assay: Antiproliferative activity against human MCF7 cells assessed as cell viability inhibition rate incubated for 72 hr by MTT assay; assay type: functional, cell-based; settings: MCF7, 72 h
# [6] = Clearance in rat plasma at 50 mg/kg, po and measured upto 24 hr by LC-MS/MS analysis; assay type: ADME, organism-based
# [7] = Selectivity ratio of IC50 for inhibition of GRP94 (unknown origin) to IC50 for inhibition of HSP90alpha (unknown origin)
# [8] = AUC in rat plasma at 50 mg/kg, po and measured upto 24 hr by LC-MS/MS analysis; assay type: ADME, organism-based
# SK-BR-3 = assay: Antiproliferative activity against human SK-BR-3 cells assessed as cell viability inhibition rate incubated for 72 hr by MTT assay; assay type: functional, cell-based; settings: SK-BR-3, 72 h
# K562 = assay: Antiproliferative activity against human K562 cells assessed as cell viability inhibition rate incubated for 72 hr by MTT assay; assay type: functional, cell-based; settings: K562, 72 h
# [9] = Cmax in rat plasma at 50 mg/kg, po and measured upto 24 hr by LC-MS/MS analysis; assay type: ADME, organism-based
# [10] = Half life in rat plasma at 50 mg/kg, po and measured upto 24 hr by LC-MS/MS analysis; assay type: ADME, organism-based
# [11] = target: T3, Heat shock protein HSP 90-alpha (Homo sapiens, UniProt P07900); assay: Inhibition of HSP90alpha (unknown origin) incubated for 12 to 16 hrs by FP competition assay
# [12] = target: T3, Heat shock protein HSP 90-alpha; assay: Binding affinity to Hsp90alpha (unknown origin) assessed as dissociation constant
# Endoplasmin [13] = target: T2, Endoplasmin; assay: Binding affinity to GRP94 (unknown origin) assessed as dissociation constant
# T2 sequence (P14625 whole entry): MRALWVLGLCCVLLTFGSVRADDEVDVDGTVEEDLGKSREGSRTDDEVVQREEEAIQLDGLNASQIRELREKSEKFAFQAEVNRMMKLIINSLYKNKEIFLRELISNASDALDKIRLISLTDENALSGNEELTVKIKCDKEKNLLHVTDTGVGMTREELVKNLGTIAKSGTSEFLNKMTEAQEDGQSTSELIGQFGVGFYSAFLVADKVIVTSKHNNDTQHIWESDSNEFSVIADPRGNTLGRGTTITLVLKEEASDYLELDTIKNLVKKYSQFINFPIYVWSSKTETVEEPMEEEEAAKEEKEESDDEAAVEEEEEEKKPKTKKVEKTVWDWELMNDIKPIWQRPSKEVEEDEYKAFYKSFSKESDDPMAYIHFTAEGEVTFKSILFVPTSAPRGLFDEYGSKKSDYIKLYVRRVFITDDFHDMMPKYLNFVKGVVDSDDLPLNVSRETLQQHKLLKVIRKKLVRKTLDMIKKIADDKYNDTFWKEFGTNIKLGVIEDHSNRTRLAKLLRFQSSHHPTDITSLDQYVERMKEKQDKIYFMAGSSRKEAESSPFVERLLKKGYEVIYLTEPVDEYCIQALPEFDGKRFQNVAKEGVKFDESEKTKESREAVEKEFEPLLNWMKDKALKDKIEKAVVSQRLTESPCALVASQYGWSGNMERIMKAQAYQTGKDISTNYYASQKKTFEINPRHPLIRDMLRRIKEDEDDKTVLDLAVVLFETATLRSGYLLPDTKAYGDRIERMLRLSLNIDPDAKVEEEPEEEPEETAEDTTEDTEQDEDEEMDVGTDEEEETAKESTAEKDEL
Structure (SMILES),Kd (Heat shock protein HSP90 [1]) [µM],IC50 (A549) [µM],IC50 (HCT-116) [µM],IC50 (MCF7) [µM],IC50 (SK-BR-3) [µM],IC50 (K562) [µM],also measured
CCCCN(CCCC)C(=O)[C@H]1C[C@H](c2ccccc2)CN1C(=O)c1cc(C(C)C)c(O)cc1O,,,,,,,Activity (Heat shock protein HSP90 [1]): inactive; inhibition (Heat shock protein HSP90 [2]): inactive
CCN1CCN(C(=O)[C@H]2C[C@H](c3ccccc3)CN2C(=O)c2cc(C(C)C)c(O)cc2O)CC1,,,,,,,Activity (Heat shock protein HSP90 [1]): inactive; inhibition (Heat shock protein HSP90 [2]): inactive
O=C(NCCCN1CCOCC1)[C@H]1C[C@H](c2ccccc2)CN1C(=O)c1cc(C2CC2)c(O)cc1O,0.068,0.031,0.187,0.072,0.105,0.403,Tmax [3]: 0.883 h; bioavailability [4]: 7.1%; IC50 (Endoplasmin [5]): 0.203 µM; CL/F [6]: 0.105 L/h/kg; Ratio IC50 [7]: 1.49; AUC at 24 h [8]: 239 µg·h/mL; Cmax [9]: 76.5 µg/mL; half-life [10]: 6.9 h; IC50 [11]: 0.136 µM
CC(C)N(Cc1cccnc1)C(=O)[C@H]1CCCN1C(=O)c1cc(C2CC2)c(OP(=O)(O)O)cc1O,0.136,,,,,,IC50 (Heat shock protein HSP90 [2]): 0.237 µM
CC(C)c1cc(C(=O)N2C[C@@H](c3ccccc3)C[C@@H]2C(=O)NCCc2ccccc2)c(O)cc1O,0.032,0.045,0.271,0.054,0.371,0.623,IC50 (Endoplasmin [5]): 0.304 µM; Ratio IC50 [7]: 2.22; IC50 [11]: 0.137 µM
COCCN(CCOC)C(=O)[C@H]1C[C@H](c2ccccc2)CN1C(=O)c1cc(C(C)C)c(O)cc1O,0.783,0.301,0.731,0.375,0.877,0.703,
O=C(NCc1ccccc1Cl)[C@H]1C[C@H](c2ccccc2)CN1C(=O)c1cc(C2CC2)c(O)cc1O,0.236,0.042,0.301,0.076,0.331,0.457,
O=C(NCc1ccccc1)[C@H]1C[C@H](c2ccccc2)CN1C(=O)c1cc(C2CC2)c(O)cc1O,0.067,0.042,0.461,0.063,0.307,0.451,
O=C(NCc1ccc(F)cc1F)[C@H]1C[C@H](c2ccccc2)CN1C(=O)c1cc(C2CC2)c(O)cc1O,0.157,0.054,0.272,0.037,0.256,0.378,
COc1ccc(CNC(=O)[C@H]2C[C@H](c3ccccc3)CN2C(=O)c2cc(C3CC3)c(O)cc2O)cc1,0.168,0.113,0.631,0.167,0.631,0.561,
CC(C)c1cc(C(=O)N2Cc3ccc(CN4CCN(C)CC4)cc3C2)c(O)cc1O [ONALESPIB],0.027,0.131,0.102,0.053,0.197,0.465,Kd [12]: 0.05 µM; Kd (Endoplasmin [13]): 0.03 µM; IC50 (Endoplasmin [5]): 0.03 µM; Ratio IC50 [7]: 0.6; IC50 [11]: 0.05 µM
CC(C)c1cc(C(=O)N2C[C@@H](c3ccccc3)C[C@@H]2C(=O)NCc2ccccc2)c(O)cc1O,0.087,0.039,0.303,0.061,0.267,0.471,
COc1ccc(CNC(=O)[C@H]2C[C@H](c3ccccc3)CN2C(=O)c2cc(C(C)C)c(O)cc2O)cc1,0.147,0.103,0.473,0.107,0.732,0.541,
CC(C)c1cc(C(=O)N2C[C@@H](c3ccccc3)C[C@@H]2C(=O)NCc2ccccc2Cl)c(O)cc1O,0.351,0.072,0.461,0.103,0.572,0.633,
CC(C)NC(=O)Oc1ccc2c(c1)CN(C(=O)c1cc(C3CC3)c(O)cc1O)C2,0.02,,,,,,IC50 (Heat shock protein HSP90 [2]): 0.27 µM
CCOCCCNC(=O)[C@H]1C[C@H](c2ccccc2)CN1C(=O)c1cc(C(C)C)c(O)cc1O,1.098,0.203,1.13,0.231,0.933,0.707,
O=C(c1ccccc1O)N1Cc2ccccc2C1,0.532,,,,,,IC50 (Heat shock protein HSP90 [2]): 6.94 µM
CC(C)c1cc(C(=O)N2C[C@@H](c3ccccc3)C[C@@H]2C(=O)NCCCN2CCOCC2)c(O)cc1O,0.087,0.028,0.206,0.061,0.21,0.433,Tmax [3]: 0.733 h; bioavailability [4]: 5.5%; IC50 (Endoplasmin [5]): 0.773 µM; CL/F [6]: 0.0876 L/h/kg; Ratio IC50 [7]: 5.02; AUC at 24 h [8]: 186 µg·h/mL; Cmax [9]: 65.7 µg/mL; half-life [10]: 5.8 h; IC50 [11]: 0.154 µM
CC(C)c1cc(C(=O)N2C[C@@H](c3ccccc3)C[C@@H]2C(=O)NCc2ccc3ccccc3n2)c(O)cc1O,0.432,0.078,0.537,0.087,0.634,0.531,
CC(C)c1cc(C(=O)N2C[C@@H](c3ccccc3)C[C@@H]2C(=O)NCC(=O)N2CCCCC2)c(O)cc1O,,,,,,,Activity (Heat shock protein HSP90 [1]): inactive; inhibition (Heat shock protein HSP90 [2]): inactive
CCN1CCCC1CNC(=O)[C@H]1C[C@H](c2ccccc2)CN1C(=O)c1cc(C(C)C)c(O)cc1O (some centres not stated),,,,,,,Activity (Heat shock protein HSP90 [1]): inactive; inhibition (Heat shock protein HSP90 [2]): inactive
CC(C)c1cc(C(=O)N2C[C@@H](c3ccccc3)C[C@@H]2C(=O)NC(C)c2ccccc2)c(O)cc1O (some centres not stated),0.232,0.087,0.514,0.113,0.703,0.621,
CC(C)N(Cc1cccnc1)C(=O)[C@H]1CCCN1C(=O)c1cc(C2CC2)c(O)cc1O,0.027,,,,,,IC50 (Heat shock protein HSP90 [2]): 0.31 µM
